Results from ChEMBL document CHEMBL1135096, “4-Aryl/cycloalkyl-5-phenyloxazole derivatives as selective COX-2 inhibitors” (Bioorg Med Chem Lett, 2002).

How the values were obtained:
[1] = biological target: T1, Prostaglandin G/H synthase 2 (Homo sapiens, UniProt P35354)
T1 sequence (P35354 whole entry): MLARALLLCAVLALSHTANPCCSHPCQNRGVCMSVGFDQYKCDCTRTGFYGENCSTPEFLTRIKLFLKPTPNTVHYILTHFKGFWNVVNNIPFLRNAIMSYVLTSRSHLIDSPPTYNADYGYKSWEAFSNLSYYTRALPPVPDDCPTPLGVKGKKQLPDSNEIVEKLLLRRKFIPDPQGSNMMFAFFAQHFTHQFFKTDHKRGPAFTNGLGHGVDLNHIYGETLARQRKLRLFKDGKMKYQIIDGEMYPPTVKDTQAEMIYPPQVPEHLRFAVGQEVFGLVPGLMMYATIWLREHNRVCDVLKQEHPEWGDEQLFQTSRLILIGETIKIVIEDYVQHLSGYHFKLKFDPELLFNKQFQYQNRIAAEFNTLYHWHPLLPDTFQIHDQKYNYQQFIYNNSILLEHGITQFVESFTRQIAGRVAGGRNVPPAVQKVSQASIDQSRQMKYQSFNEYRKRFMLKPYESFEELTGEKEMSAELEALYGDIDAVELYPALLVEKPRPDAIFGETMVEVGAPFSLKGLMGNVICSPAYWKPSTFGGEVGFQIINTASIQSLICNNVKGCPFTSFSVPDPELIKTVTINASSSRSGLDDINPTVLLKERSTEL
Description: In vitro inhibitory activity towards human recombinant Prostaglandin G/H synthase 2 enzyme

[2] = biological target: Prostaglandin G/H synthase 1 (Homo sapiens, UniProt P23219)
Chain of Prostaglandin G/H synthase 1 (P23219 whole entry): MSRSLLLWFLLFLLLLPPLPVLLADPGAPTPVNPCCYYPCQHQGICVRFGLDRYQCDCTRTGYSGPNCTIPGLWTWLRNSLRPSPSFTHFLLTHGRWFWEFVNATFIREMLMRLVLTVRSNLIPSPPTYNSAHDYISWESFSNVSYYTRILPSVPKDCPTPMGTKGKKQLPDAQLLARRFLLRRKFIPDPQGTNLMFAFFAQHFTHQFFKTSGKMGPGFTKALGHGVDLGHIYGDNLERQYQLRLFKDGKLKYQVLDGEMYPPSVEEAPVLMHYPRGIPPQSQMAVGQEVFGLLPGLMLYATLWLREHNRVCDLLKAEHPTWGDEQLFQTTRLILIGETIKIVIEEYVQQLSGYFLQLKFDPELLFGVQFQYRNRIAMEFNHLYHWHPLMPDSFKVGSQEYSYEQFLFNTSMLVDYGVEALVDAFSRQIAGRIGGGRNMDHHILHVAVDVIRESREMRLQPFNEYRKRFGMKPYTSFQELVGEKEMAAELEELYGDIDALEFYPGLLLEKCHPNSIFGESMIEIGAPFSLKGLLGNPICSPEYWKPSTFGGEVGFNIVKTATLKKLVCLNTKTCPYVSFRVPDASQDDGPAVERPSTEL
Description: In vitro inhibitory activity towards human platelet recombinant Prostaglandin G/H synthase 1

IC50 [1] [µM]	IC50 [2] [µM]	SMILES
0.14	> 100	CCc1ccc(-c2nc(C)oc2-c2ccc(S(C)(=O)=O)cc2)s1
–	> 100	Cc1nc(C2CCCCCC2)c(-c2ccc(S(C)(=O)=O)cc2)o1
0.09	> 100	Cc1nc(-c2ccccc2)c(-c2ccc(S(C)(=O)=O)cc2)o1
2.1	> 100	Cc1nc(-c2ccc(S(C)(=O)=O)cc2)c(-c2ccc(F)cc2)o1
18	> 100	Cc1nc(C2CCCC2)c(-c2ccc(S(C)(=O)=O)cc2)o1
0.07	42	Cc1nc(-c2ccc(F)cc2)c(-c2ccc(S(C)(=O)=O)cc2)o1
3.1	> 100	CNS(=O)(=O)c1ccc(-c2oc(C)nc2C2CCCCC2)cc1
–	47.5	Cc1nc(C2CCCCC2)c(-c2ccc(S(N)(=O)=O)cc2)o1
–	> 100	Cc1nc(C2CCCCC2)c(-c2ccc(S(C)(=O)=O)cc2)o1
0.27	60	CCc1nc(C2CCCCC2)c(-c2ccc(S(C)(=O)=O)cc2)o1
–	93	Cc1nc(-c2ccc(S(C)(=O)=O)cc2)c(-c2ccc(Cl)s2)o1
38	> 100	CCS(=O)(=O)c1ccc(-c2oc(C)nc2-c2ccc(F)cc2)cc1
> 100	> 100	CS(=O)(=O)c1ccc(-c2oc(-c3ccccc3)nc2C2CCCCC2)cc1

SMILES	IC50 [1] [µM]	IC50 [2] [µM]
Cc1nc(-c2ccc(F)cc2)c(-c2ccc(S(N)(=O)=O)cc2)o1	0.024	4.7
